Test in all cases: DTP human tumour cell line panel, 48 h
For experiment [1], the system named is CCRF-CEM leukemia.
The subject of experiment [2] is COLO 205 colon.
The subject of experiment [3] is HCT-15 colon.
The subject of experiment [4] is MOLT-4 leukemia.
The subject of experiment [5] is NCI-H226 lung.
Experiment [6] relates to NCI-H23 lung.
Experiment [7] deals with TK-10 renal.
Experiment [8] deals with UACC-62 melanoma.
Experiment [9] deals with UO-31 renal.
Experiment [10] concerns HL-60(TB) leukemia.

We go through 15 compounds from PubChem BioAssay (NCI).

The structures appear in SMILES notation.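 The compound was tested at five concentrations on cells cultured in 96-well plates, with a 48-hour exposure period. The concentration for full growth arrest is given as TGI.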

In the case of `S=C1SC(c2ccc(Cl)cc2)(c2ccc(Cl)cc2)c2ccccc21`, the TGI in experiment [1], in experiment [2], in experiment [3], in experiment [4], in experiment [5] and in [6] was above 100 µM in each case. The total growth inhibition concentration (TGI) in [7], in [8] and in [9] was above 100 µM in each case.
Turning to `CC(NC(=O)C(N)CC(=O)O)NC(=O)N1CCCC1` (centres undefined), the concentration for total growth inhibition (TGI) in experiment [1], in [2], in experiment [3], in experiment [4], in [5] and in [6] was above 100 µM in each case. In addition, the TGI in [7], in experiment [8] and in experiment [9] was above 100 µM in each case.
Take `Cc1cc(C#N)c(Nc2c(C)cccc2[N+](=O)[O-])s1`: the TGI (commonly the concentration at which net growth stops) in experiment [1] was 55 µM; in experiment [2], above 100 µM; in experiment [3] it was above 100 µM; in experiment [4], above 100 µM; in experiment [5], above 100 µM; in experiment [6], above 100 µM. In addition, the concentration for total growth inhibition (TGI) in [8] and in experiment [9] was above 100 µM each time.
Take `Cc1n[nH]c(=O)n1N1C(=O)c2ccccc2C1=O`: the TGI in experiment [1], in [2], in [3], in experiment [4], in experiment [5] and in experiment [6] was above 100 µM in each case. The TGI in [7], in [8] and in [9] was above 100 µM each time.
As to `C/C(=N/N)c1ccc2[nH]c3c(C)cc([N+](=O)[O-])c(C)c3c2c1`, the TGI in [1] was 30.1 µM; in [2] it was 25.5 µM; in [3], 24.7 µM; in experiment [10] it was above 100 µM; in [4], 19.8 µM; in experiment [5], 29.2 µM. For the same compound, the total growth inhibition concentration (TGI) in [7] is 28.4 µM; in experiment [9] it was 22.4 µM.
For `COC1(C)C=NCC(C)(C)NC(=O)C(C)(OC)C=NCC(C)(C)NC1=O` (centres undefined), the total growth inhibition concentration (TGI) in experiment [1], in experiment [2], in experiment [3], in [10], in experiment [4] and in experiment [6] was above 10 µM throughout. Also, the total growth inhibition concentration (TGI) in experiment [7] and in [8] was above 10 µM in each case.
As to `Cc1cc(-c2ccccc2)cc2[n+]1CC=C2`, the TGI in experiment [2], in experiment [10], in experiment [5], in experiment [6], in experiment [7] and in experiment [9] was above 100 µM in each case.
Turning to `Cc1nn(C)c2c1C(=O)N(C)CC(=O)N2C`, the total growth inhibition concentration (TGI) in [1], in experiment [2], in experiment [3], in [10], in experiment [4] and in experiment [6] was above 100 µM throughout. Also, the TGI in experiment [7], in experiment [8] and in experiment [9] was above 100 µM each time.
Regarding `CCn1cnc2c(NC(C)=O)ncnc21`, the TGI in experiment [1], in experiment [2], in experiment [3], in experiment [4], in [5] and in [6] was above 100 µM throughout. In addition, the concentration for total growth inhibition (TGI) in [7], in experiment [8] and in [9] was above 100 µM each time.
As to `CCCCCCCCCCCCP(=O)(O)OCC(N)C(=O)O` (centres undefined), the TGI is above 100 µM in experiment [2]; 41.3 µM in [3]; 36.1 µM in experiment [10]; 61.7 µM in experiment [4]; above 100 µM in experiment [5]; above 100 µM in [6]. For the same compound, the results for the total growth inhibition concentration (TGI) in [7] and in [9] were above 100 µM and 26 µM, respectively.
Take `Cc1cc2[nH]c3c(C#N)c(-c4ccccc4)c(CN4CCOCC4)c(=O)n3c2cc1C`: the TGI in experiment [1], in experiment [2], in [3], in [5], in experiment [6] and in experiment [7] was above 100 µM each time. In addition, the TGI in [9] is above 100 µM.
On to `CC1OC(OC2CC(O)(C(=O)CO)Cc3c(O)c4c(c(O)c32)C(=O)c2ccccc2C4=O)CC(N)C1O` (centres undefined), for which the TGI in experiment [2] is 0.139 µM; in experiment [3], 1.99 µM; in experiment [10], below 0.0173 µM; in experiment [4], below 0.0819 µM; in experiment [5], below 0.0228 µM; in [6], 0.203 µM. In addition, the total growth inhibition concentration (TGI) in experiment [8] worked out at 0.109 µM; in experiment [9] it was 0.267 µM.
For `O=C1O[C@H]2[C@@H]3OC(=O)c4cc(O)c(O)c(O)c4-c4c(cc(O)c(O)c4O)C(=O)OC[C@H]2O[C@@H](OC(=O)c2cc(O)c(O)c(O)c2)[C@@H]3OC(=O)c2cc(O)c(O)c3c2[C@@H]2C1=CC(=O)C(O)(O)C2(O)O3` (some centres undefined), the concentration for total growth inhibition (TGI) is above 100 µM in experiment [1]; above 100 µM in experiment [2]; above 100 µM in experiment [3]; above 100 µM in [10]; 92 µM in experiment [4]; above 100 µM in experiment [5]. The TGI in experiment [6], in experiment [8] and in [9] was above 100 µM in each case.
Consider `CC[C@@]1(O)C(=O)OCc2c1cc1n(c2=O)Cc2c-1nc1ccccc1c2/C=N\NC(=O)C(C)N` (some centres undefined), for which the total growth inhibition concentration (TGI) in [2] was above 31.6 µM; in experiment [3] it was above 100 µM; in experiment [10], above 100 µM; in [4] it was 2.08 µM; in [5], 2.43 µM; in experiment [6], 0.847 µM. The values for the TGI in [7], in [8] and in [9] were above 100 µM, 0.305 µM and 2.12 µM, respectively.
Take `CCCCP(CCCC)(CCCC)=C(C(=O)OC)C(C(=O)OC)=C1SC(C(=O)OC)=C(C(=O)OC)S1`: the TGI in experiment [2] is 45.5 µM; in experiment [3] it was 96 µM; in [4], 44.5 µM; in [5], 45 µM; in experiment [6], 45.4 µM; in experiment [7] it was above 100 µM. In addition, the results for the total growth inhibition concentration (TGI) in experiment [8] and in experiment [9] were 27.1 µM and 51.4 µM, respectively.
